We go through 11 molecules from patent US9765018B2, “IDO inhibitors” (BRISTOL-MYERS SQUIBB COMPANY, priority 2013, dated 2017).

For one assay, the target named is Human IDO1 (Homo sapiens (Human), UniProt P14902). As to the kind of experiment: IDO Kynurenine Assay with Human IDO1/HEK293 Cells. It is filed as cell-based. Particulars: HEK293 cells with human IDO1; read-out: HEK human IDO-1 (IC50). The method, then: IDO Kynurenine Assay with Human IDO1/HEK293 Cells
Human IDO1/HEK293 cells were seeded at 10,000 cells per 50 uL per well with RPMI/phenol red free media contains 10% FBS in a 384-well black wall clear bottom tissue culture plate (Matrix Technologies LLC) 125 nL of certain concentration of compound was then added to each well using ECHO liquid handling systems. The cells were incubated for 20 hours in 37° C. incubator with 5% CO2.
The compound treatments were stopped by adding Trichloroacetic Acid (Sigma-Aldrich) to a final concentration at 0.2%. The cell plate was further incubated at 50° C. for 30 minute. The equal volume supernatant (20 uL) and 0.2% (w/v) Ehrlich reagent (4-dimethylaminobenzaldehyde, Sigma-Aldrich) in glacial acetic acid were mixed in a new clear bottom 384-well plate. This plate was then incubated at room temperature for 30 minute. The absorbance at 490 nm was measured on Envision plate reader.

Assay [1] deals with T1, IDO (Homo sapiens (Human), UniProt P14902). As to the kind of experiment: Kynurenine assay in IFN-γ-stimulated Hela cells. Particulars: 20 h, read-out: Hela Kyurenine (IC50). It counts as cell-based. In a few lines:
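Kynurenine in supernatant is read at 490 nm after Ehrlich reagent (10 min RT), following TCA stop and 30 min at 50° C hydrolysis. Before that, Hela cells in phenol red-free RPMI/10% FBS were co-treated 20 h at 37° C with 100 ng/mL IFN-γ and compound (30 μM top, 3-fold series to 1.5 nM).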

Assay [2] addresses T1, IDO. Nature of the assay: LLE_IDO_ABS_DR (IDO assay, method not described).

Chain of Human IDO1 (P14902 whole entry): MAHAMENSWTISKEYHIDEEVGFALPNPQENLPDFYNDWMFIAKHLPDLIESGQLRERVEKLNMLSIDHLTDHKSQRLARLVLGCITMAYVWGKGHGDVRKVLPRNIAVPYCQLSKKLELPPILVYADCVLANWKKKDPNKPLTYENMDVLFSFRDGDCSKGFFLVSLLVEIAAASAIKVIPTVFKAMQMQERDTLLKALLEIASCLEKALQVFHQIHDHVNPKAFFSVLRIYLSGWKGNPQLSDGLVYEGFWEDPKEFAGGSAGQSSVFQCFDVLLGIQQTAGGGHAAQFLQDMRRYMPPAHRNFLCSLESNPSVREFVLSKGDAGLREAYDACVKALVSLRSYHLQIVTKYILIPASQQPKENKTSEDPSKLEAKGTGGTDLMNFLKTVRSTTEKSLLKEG
T1 sequence (P14902 whole entry): as above

With `COc1ccc(-c2ccc(Oc3ccccc3C(C)(C)C)c(NC(=O)Nc3ccccc3C(F)(F)F)c2)cc1C(=O)O` [Example 46, 4′-(2-tert-butylphenoxy)-4-methoxy-3′-(3-(2-(trifluoromethyl)phenyl)ureido)biphenyl-3-carboxylic acid], the values for the IC50 on Human IDO1, at IDO [1] and against IDO [2] were 540 nM, 50 nM and 320 nM, respectively.

For `COc1ccc(-c2ccc(Oc3ccccc3C(C)C)c(NC(=O)Nc3ccc(C)cc3)c2)cc1C(=O)O` [Example 63, 4′-(2-isopropylphenoxy)-4-methoxy-3′-(3-p-tolylureido)biphenyl-3-carboxylic acid], the values for the concentration for half-maximal inhibition (IC50) at Human IDO1, on IDO [1] and on IDO [2] were 1600 nM, 390 nM and 1610 nM, respectively.

As to `COc1ccc(-c2ccc(Oc3ccccc3C)c(NC(=O)Nc3ccc(C)cc3)c2)cc1C(=O)O` [Example 73, 4-methoxy-4′-(o-tolyloxy)-3′-(3-p-tolylureido)biphenyl-3-carboxylic acid], the values for the half-inhibitory concentration (IC50) on Human IDO1, at IDO [1] and against IDO [2] were 2970 nM, 840 nM and 1570 nM, respectively.

As to `CCCc1ccccc1Oc1ccc(-c2ccc(OC)c(C(=O)O)c2)cc1NC(=O)Nc1ccc(C)cc1` [Example 77, 4-methoxy-4′-(2-propylphenoxy)-3′-(3-p-tolylureido)biphenyl-3-carboxylic acid], the IC50 amounted to 2330 nM on Human IDO1, 330 nM at IDO [1] and 780 nM on IDO [2].

As to `COc1ccc(-c2ccc(Oc3ccccc3C(C)(C)C)c(NC(=O)Nc3ccccc3F)c2)cc1C(=O)O` [Example 79, 4′-(2-(tert-butyl)phenoxy)-3′-(3-(2-fluorophenyl)ureido)-4-methoxy-[1,1′-biphenyl]-3-carboxylic acid], the 50% inhibitory concentration (IC50) came out at 420 nM at Human IDO1, 60 nM on IDO [1] and 130 nM against IDO [2].

With `COc1ccc(-c2ccc(Oc3ccccc3C(C)(C)C)c(NC(=O)Nc3ccc(Cl)cc3Cl)c2)cc1C(=O)O` [Example 103, 4′-(2-(tert-butyl)phenoxy)-3′-(3-(2,4-dichlorophenyl)ureido)-4-methoxy-[1,1′-biphenyl]-3-carboxylic acid], the values for the IC50 on Human IDO1, on IDO [1] and against IDO [2] were 1310 nM, 90 nM and 470 nM, respectively.

As to `COc1ccc(-c2ccc(Oc3cccc(C(C)(C)C)c3)c(NC(=O)Nc3ccc(C)cc3)c2)cc1C(=O)O` [Example 113, 4′-(3-tert-butylphenoxy)-4-methoxy-3′-(3-p-tolylureido)biphenyl-3-carboxylic acid], the IC50 on Human IDO1 was found to be 1660 nM; on IDO [1], 690 nM; against IDO [2], 880 nM.

Turning to `COc1ccc(-c2ccc(Oc3cccc4c3CCCC4)c(NC(=O)Nc3ccccc3Cl)c2)cc1C(=O)O` [Example 114, 3′-(3-(2-chlorophenyl)ureido)-4-methoxy-4′-(5,6,7,8-tetrahydronaphthalen-1-yloxy)biphenyl-3-carboxylic acid], the IC50 was 120 nM on Human IDO1, 20 nM at IDO [1] and 100 nM on IDO [2].

For `COc1ccc(-c2ccc(Oc3cccc4c3CCCC4)c(NC(=O)Nc3ccccc3C)c2)cc1C(=O)O` [Example 115, 4-methoxy-4′-(5,6,7,8-tetrahydronaphthalen-1-yloxy)-3′-(3-o-tolylureido)biphenyl-3-carboxylic acid], the IC50 on Human IDO1 is 240 nM; on IDO [1], 50 nM; on IDO [2] it was 200 nM.

`COc1ccc(-c2ccc(Oc3cccc4c3CCCC4)c(NC(=O)Nc3cccc(C)c3)c2)cc1C(=O)O` [Example 116, 4-methoxy-4′-(5,6,7,8-tetrahydronaphthalen-1-yloxy)-3′-(3-m-tolylureido)biphenyl-3-carboxylic acid]: the IC50 came out at 790 nM on Human IDO1, 100 nM at IDO [1] and 780 nM against IDO [2].

On to `COc1ccc(-c2ccc(Oc3cccc(C)c3C)c(NC(=O)Nc3ccccc3Cl)c2)cc1C(=O)O` [Example 120, 3′-(3-(2-chlorophenyl)ureido)-4′-(2,3-dimethylphenoxy)-4-methoxybiphenyl-3-carboxylic acid], for which the IC50 at Human IDO1 is 260 nM; at IDO [1], 80 nM; against IDO [2] it was 430 nM.
